In patent US9096560B2, “5-heterocyclylalkyl-3-hydroxy-2-phenylcyclopent-2-enones as herbicides” (Syngenta Limited, priority 2008, dated 2015):

What was measured:
Assay type in all cases: in vivo
Setaria faberi (SETFA) = assay: Example A post-emergence herbicidal test, SETFA; settings: rate 250 g/ha, evaluated 14 or 15 days after spraying
Experimental: (§1) Seeds of a variety of test species were sown in standard soil in pots. After cultivation for one day (pre-emergence) or after 10 days cultivation (post-emergence) under controlled conditions in a glasshouse, the plants were sprayed with an aqueous spray solution derived from the formulation of the technical active ingredient in 0.6 ml acetone and 45 ml formulation solution containing 10.6% Emulsogen EL (Registry number 61791-12-6), 42.2% N-methylpyrrolidone, 42.2% dipropylene glycol monomethyl ether (Registry number 34590-94-8) and 0.2% X-77 (Registry number 11097-66-8). The test plants were then grown in a greenhouse under optimum conditions until, 14 or 15 days later for post-emergence and 19 or 20 days for pre-emergence, the test was evaluated (100=total damage to plant; 0=no damage to plant). Alopecurus myosuroides (ALOMY), Avena fatua (AVEFA), Lolium perenne (LOLPE), Setaria faberi (SETFA), Digitaria sanguinalis (DIGSA), Echinochloa crus-galli (ECHCG) Post-Emergence Activity

Avena fatua (AVEFA) [1] = assay: Example A post-emergence herbicidal test, AVEFA; settings: rate 250 g/ha, evaluated 14 or 15 days after spraying
Experimental: as §1

[2] = system: Alopecurus myosuroides (ALOMY); assay: Example B pre-emergence herbicidal test, ALOMY; settings: Alopecurus myosuroides, 312 h, rate 250 g/ha, evaluated after 13 days, 100=total damage to plant, 0=no damage to plant
In short: (§2)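 Plants were rated 13 days after treatment, 0 = no damage to 100 = total damage. They were grown in a glasshouse at 24/16 °C, 14 h light, 65% humidity and watered twice daily. Pre-emergence spray was applied one day after sowing, formulated in acetone/water 50:50 with 0.5% Tween 20.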

[3] = system: Alopecurus myosuroides (ALOMY); assay: Example A post-emergence herbicidal test, ALOMY; settings: rate 250 g/ha, evaluated 14 or 15 days after spraying
Experimental: as §1

[4] = system: Alopecurus myosuroides (ALOMY); assay: Example B post-emergence herbicidal test, ALOMY; settings: Alopecurus myosuroides, 312 h, rate 250 g/ha, evaluated after 13 days, scale 0-100, read-out: Post-emergence activity ALOMY (100=total damage to plant; 0=no damage to plant)
In short: (§3)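 Plants grown from seed in standard soil for 8 days in a glasshouse (24/16 °C day/night, 14 h light, 65% humidity), then sprayed with an aqueous solution from the active ingredient formulated in acetone/water (50:50) with 0.5% Tween 20. Damage scored after 13 days, 0 (none) to 100 (total).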

Lolium perenne (LOLPE) [5] = assay: Example B post-emergence herbicidal test, LOLPE; settings: Lolium perenne, 312 h, rate 250 g/ha, evaluated after 13 days, scale 0-100, read-out: Post-emergence activity LOLPE (100=total damage to plant; 0=no damage to plant)
In short: as §3

Avena fatua (AVEFA) [6] = assay: Example B post-emergence herbicidal test, AVEFA; settings: Avena fatua, 312 h, rate 250 g/ha, evaluated after 13 days, scale 0-100, read-out: Post-emergence activity AVEFA (100=total damage to plant; 0=no damage to plant)
In short: as §3

[7] = system: Winter Wheat variety 'Hereward'; assay: Example C crop damage test on Winter Wheat, post-emergence, no safener; settings: Triticum aestivum, 312 h, rate 250 g/ha, evaluated after 13 days, read-out: Winter Wheat (Hereward) damage (100=total damage to plant; 0=no damage to plant)
Experimental: Seeds of the Winter Wheat variety ‘Hereward’ were sown in standard soil in pots. After 8 days cultivation under controlled conditions in a glasshouse (at 24/16° C., day/night; 14 hours light; 65% humidity), the plants were sprayed with an aqueous spray solution derived from the formulation of the technical active ingredient in acetone/water (50:50) solution containing 0.5% Tween 20 (polyoxyethelyene sorbitan monolaurate, CAS RN 9005-64-5). The test plants were then grown in a glasshouse under controlled conditions in a glasshouse (at 24/16° C., day/night; 14 hours light; 65% humidity) and watered twice daily. After 13 days for pre and post-emergence, the test was evaluated (100=total damage to plant; 0=no damage to plant).

Lolium perenne (LOLPE) [8] = assay: Example A post-emergence herbicidal test, LOLPE; settings: rate 250 g/ha, evaluated 14 or 15 days after spraying
Experimental: as §1

[9] = system: Echinochloa crus-galli (ECHCG); assay: Example B post-emergence herbicidal test, ECHCG; settings: Echinochloa crus-galli, 312 h, rate 250 g/ha, evaluated after 13 days, scale 0-100, read-out: Post-emergence activity ECHCG (100=total damage to plant; 0=no damage to plant)
In short: as §3

[10] = system: Echinochloa crus-galli (ECHCG); assay: Example B pre-emergence herbicidal test, ECHCG; settings: Echinochloa crus-galli, 312 h, rate 250 g/ha, evaluated after 13 days, 100=total damage to plant, 0=no damage to plant
In short: as §2

Lolium perenne (LOLPE) [11] = assay: Example B pre-emergence herbicidal test, LOLPE; settings: Lolium perenne, 312 h, rate 250 g/ha, evaluated after 13 days, 100=total damage to plant, 0=no damage to plant
In short: as §2

[12] = system: Digitaria sanguinalis (DIGSA); assay: Example A post-emergence herbicidal test, DIGSA; settings: rate 250 g/ha, evaluated 14 or 15 days after spraying
Experimental: as §1

[13] = system: Echinochloa crus-galli (ECHCG); assay: Example A post-emergence herbicidal test, ECHCG; settings: rate 250 g/ha, evaluated 14 or 15 days after spraying
Experimental: as §1

Avena fatua (AVEFA) [14] = assay: Example B pre-emergence herbicidal test, AVEFA; settings: Avena fatua, 312 h, rate 250 g/ha, evaluated after 13 days, 100=total damage to plant, 0=no damage to plant
In short: as §2

[15] = system: Winter Wheat variety 'Hereward' seed treated with cloquintocet mexyl; assay: Example C crop damage test on Winter Wheat seed treated with safener cloquintocet mexyl, post-emergence; settings: rate 250 g/ha, seed treated with cloquintocet mexyl 0.5 grams per kilogram of dry seed, evaluated after 13 days
Experimental: Seeds of the Winter Wheat variety ‘Hereward’ were seed treated with a wettable powder formulation of the cereal herbicide safener, cloquintocet mexyl, at a rate of 0.5 grams per kilogram of dry seed prior to the initiation of glasshouse testing. One seed was sown per 1.5 inch plastic pot into a sandy loam soil at a depth of 1 cm, 8 days prior to application of the test compounds and was watered and grown under controlled conditions in a glasshouse (at 24/16° C., day/night; 14 hours light; 65% humidity). The plants were sprayed Post-emergence with an aqueous spray solution derived from the formulation of the technical active ingredient in acetone/water (50:50) solution containing 0.5% Tween 20 (polyoxyethelyene sorbitan monolaurate, CAS RN 9005-64-5). The test plants were then grown in a glasshouse under controlled conditions in a glasshouse (at 24/16° C., day/night; 14 hours light; 65% humidity) and watered twice daily. After 13 days for pre and post-emergence, the test was evaluated (100=total damage to plant; 0=no damage to plant).

Row | Compound | Post-Emergence Activity SETFA (100=total damage to plant; 0=no damage to plant) (Setaria faberi (SETFA)) | Post-Emergence Activity AVEFA (100=total damage to plant; 0=no damage to plant) (Avena fatua (AVEFA) [1]) | pest or weed control at 250 g/ha [2] [%] | Post-Emergence Activity ALOMY (100=total damage to plant; 0=no damage to plant) [3] | pest or weed control at 250 g/ha [4] [%] | pest or weed control at 250 g/ha (Lolium perenne (LOLPE) [5]) [%] | pest or weed control at 250 g/ha (Avena fatua (AVEFA) [6]) [%] | crop damage to winter wheat at 250 g/ha [7] [%] | Post-Emergence Activity LOLPE (100=total damage to plant; 0=no damage to plant) (Lolium perenne (LOLPE) [8]) | pest or weed control at 250 g/ha [9] [%] | pest or weed control at 250 g/ha [10] [%] | pest or weed control at 250 g/ha (Lolium perenne (LOLPE) [11]) [%] | Post-Emergence Activity DIGSA (100=total damage to plant; 0=no damage to plant) [12] | Post-Emergence Activity ECHCG (100=total damage to plant; 0=no damage to plant) [13] | pest or weed control at 250 g/ha (Avena fatua (AVEFA) [14]) [%] | Winter Wheat (Hereward) + cloquintocet mexyl damage (100=total damage to plant; 0=no damage to plant) [15]
1 | Cc1cc(C)c(C2=C(OC(=O)C(C)(C)C)CC(CC3CCOCC3)C2=O)c(C)c1 (centres unmarked) [Compound P5] | 80 | 100 | 100 | 100 | 100 | 100 | 90 | 60 | 100 | 100 | 100 | 100 | 70 | 100 | 80 | 30
2 | Cc1cc(C)c(C2C(=O)CC(CC3CCOCC3)C2=O)c(C)c1 (centres unmarked) [Compound T4] | 90 | 90 | 100 | 100 | 100 | 100 | 100 | 70 | 100 | 100 | 100 | 100 | 90 | 100 | 90 | 40
3 | Cc1cc(C)c(C2C(=O)CC(CC3CCOC3)C2=O)c(C)c1 (centres unmarked) [Compound T5] | 30 | 80 | 100 | 100 | 100 | 100 | 90 | 80 | 100 | 100 | 100 | 100 | 50 | 80 | 80 | 20
4 | Cc1cc(C)c(C2C(=O)C/C(=C\C3CCOCC3)C2=O)c(C)c1 (centres unmarked) [Compound T8] | 100 | 90 | 100 | 100 | 100 | 100 | 100 | 90 | 100 | 100 | 100 | 100 | 80 | 100 | 100 | 80
5 | Cc1cc(C)c(C2C(=O)CC(CC3CCN(C(=O)c4ccc(F)cc4)CC3)C2=O)c(C)c1 (centres unmarked) [Compound T75] |  |  | 30 |  | 90 | 100 | 100 | 60 |  | 90 | 70 | 80 |  |  | 70 | 50
6 | CCCC(=O)N1CCC(CC2CC(=O)C(c3c(C)cc(C)cc3C)C2=O)CC1 (centres unmarked) [Compound T84] |  |  | 50 |  | 90 | 100 | 100 | 70 |  | 90 | 60 | 90 |  |  | 50 | 60
7 | Cc1cc(C)c(C2C(=O)CC(CC3CCN(C(=O)C4CC4)CC3)C2=O)c(C)c1 (centres unmarked) [Compound T88] |  |  | 90 |  | 90 | 90 | 100 | 70 |  | 90 | 80 | 100 |  |  | 90 | 50
8 | COC(=O)N1CCC(CC2CC(=O)C(c3c(C)cc(C)cc3C)C2=O)CC1 (centres unmarked) [Compound T98] |  |  | 70 |  | 100 | 100 | 100 | 90 |  | 90 | 90 | 90 |  |  | 80 | 60
